Laboratory results taken from ChEMBL document CHEMBL1201862, “PubChem BioAssay data set” (2004).
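Briefly, cells in 96-well plates were exposed to five compound concentrations for 48 h, and endpoints were estimated by linear interpolation. Here, GI50 denotes the concentration required for 50% inhibition of growth.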 The source made the active and inactive calls. No stated cut-off is given here; in the data, active = GI50 up to about 1.1 µM and inactive = higher.

Tests used:
Assay in all cases: NCI anticancer screen, dose series, 48 h
DU-145 = tested on: DU-145
OVCAR-4 = tested on: OVCAR-4
K562 = tested on: K562
NCI-H522 = tested on: NCI-H522
Malme-3M = tested on: Malme-3M
NCI/ADR-RES = tested on: NCI/ADR-RES
CAKI-1 = tested on: CAKI-1
M14 = tested on: M14
SNB-19 = tested on: SNB-19
SK-MEL-2 = tested on: SK-MEL-2
PC-3 = tested on: PC-3
HOP-62 = tested on: HOP-62
OVCAR-3 = tested on: OVCAR-3
BT-549 = tested on: BT-549
CCRF-CEM = tested on: CCRF-CEM
UACC-62 = tested on: UACC-62
SF-295 = tested on: SF-295
T47D = tested on: T47D
HOP-92 = tested on: HOP-92
IGROV-1 = tested on: IGROV-1

Measured: GI50

O=S1(=O)N=C(NCc2c[nH]c3ccccc23)N(c2ccccc2)c2ccncc21
inactive: DU-145 > 100 µM | OVCAR-4 > 100 µM | K562 > 100 µM | NCI-H522 25.1 µM | Malme-3M > 100 µM | NCI/ADR-RES > 100 µM | CAKI-1 > 100 µM | M14 > 100 µM | SNB-19 34.9 µM | SK-MEL-2 > 100 µM | PC-3 > 100 µM | HOP-62 30 µM | OVCAR-3 > 100 µM | BT-549 55.1 µM | CCRF-CEM > 100 µM | UACC-62 > 100 µM | SF-295 > 100 µM | T47D > 100 µM | HOP-92 22.6 µM

BrCC[N+]12CC[N+](CCBr)(CC1)C2
inactive: DU-145 > 100 µM | OVCAR-4 > 100 µM | K562 > 100 µM | NCI-H522 > 100 µM | Malme-3M > 100 µM | NCI/ADR-RES > 100 µM | CAKI-1 > 100 µM | M14 > 100 µM | SNB-19 > 100 µM | SK-MEL-2 > 100 µM | PC-3 > 100 µM | HOP-62 39.1 µM | OVCAR-3 > 100 µM | BT-549 > 100 µM | CCRF-CEM > 100 µM | UACC-62 > 100 µM | IGROV-1 > 100 µM | SF-295 > 100 µM | T47D > 100 µM | HOP-92 > 100 µM

O=c1c2nc(-c3ccccc3)oc2n(-c2ccccc2)c(=O)n1-c1ccccc1
inactive: DU-145 82.2 µM | OVCAR-4 18.8 µM | K562 > 46.5 µM | NCI-H522 21.4 µM | Malme-3M > 31.6 µM | NCI/ADR-RES 19.1 µM | CAKI-1 8.18 µM | M14 > 46.5 µM | SNB-19 20.7 µM | SK-MEL-2 > 46.5 µM | PC-3 44.4 µM | HOP-62 17.5 µM | OVCAR-3 25.8 µM | BT-549 28.4 µM | CCRF-CEM > 46.5 µM | UACC-62 31.1 µM | IGROV-1 26.5 µM | SF-295 19.1 µM | T47D 37.9 µM | HOP-92 14.4 µM

CN1C/C(=C\c2cccs2)C(=O)/C(=C/c2cccs2)C1
inactive: DU-145 28.6 µM | OVCAR-4 18.7 µM | K562 25.1 µM | NCI-H522 75.2 µM | Malme-3M 40.1 µM | NCI/ADR-RES 22.1 µM | CAKI-1 31.1 µM | M14 21.1 µM | SNB-19 30.5 µM | SK-MEL-2 20.8 µM | PC-3 19.2 µM | HOP-62 33 µM | OVCAR-3 29.3 µM | BT-549 21.4 µM | CCRF-CEM 5.27 µM | UACC-62 57.3 µM | IGROV-1 18.9 µM | SF-295 53.8 µM | T47D 20.6 µM | HOP-92 2.51 µM

Cn1c(=O)n(CC(Br)CBr)c(=O)n(CC(Br)CBr)c1=O (stereo not drawn)
inactive: DU-145 71.3 µM | OVCAR-4 66.2 µM | K562 32.5 µM | NCI-H522 28 µM | Malme-3M > 100 µM | NCI/ADR-RES 40.5 µM | CAKI-1 85.3 µM | M14 24.3 µM | SNB-19 75.7 µM | SK-MEL-2 46.1 µM | PC-3 31.8 µM | HOP-62 > 100 µM | OVCAR-3 38.5 µM | BT-549 67.9 µM | CCRF-CEM 22.7 µM | UACC-62 23.3 µM | IGROV-1 39.9 µM | SF-295 45 µM | T47D 38.7 µM | HOP-92 > 100 µM

COc1cccc(C2c3cc4c(cc3OC(N3CCOCC3)C2C)OCO4)c1O (stereo not drawn)
inactive: DU-145 4.43 µM | OVCAR-4 9.86 µM | K562 3.06 µM | NCI-H522 2.9 µM | Malme-3M 4.99 µM | NCI/ADR-RES 7.21 µM | CAKI-1 2.66 µM | M14 4.6 µM | SNB-19 3.44 µM | SK-MEL-2 7.1 µM | PC-3 4.7 µM | HOP-62 4.27 µM | OVCAR-3 3.64 µM | BT-549 13.9 µM | CCRF-CEM 3.28 µM | UACC-62 4.53 µM | IGROV-1 6.19 µM | SF-295 3.64 µM | T47D 4.48 µM | HOP-92 12.1 µM

COC(=O)C1C(OS(=O)(=O)O)CCC2CN3CCc4c([nH]c5ccccc45)C3CC21 (stereo not drawn)
inactive: DU-145 > 100 µM | OVCAR-4 > 100 µM | K562 > 100 µM | NCI-H522 > 100 µM | Malme-3M > 100 µM | NCI/ADR-RES > 100 µM | CAKI-1 > 100 µM | M14 > 100 µM | SNB-19 > 100 µM | SK-MEL-2 > 100 µM | PC-3 > 100 µM | HOP-62 > 100 µM | OVCAR-3 > 100 µM | BT-549 > 100 µM | CCRF-CEM > 100 µM | UACC-62 > 100 µM | IGROV-1 > 100 µM | SF-295 > 100 µM | T47D > 100 µM | HOP-92 > 100 µM

COc1ccccc1NCc1nnc(CCCCCCCCc2nnc(CNc3ccccc3OC)o2)o1
inactive: DU-145 > 100 µM | OVCAR-4 > 100 µM | K562 > 100 µM | NCI-H522 > 100 µM | Malme-3M > 100 µM | NCI/ADR-RES > 100 µM | CAKI-1 > 100 µM | M14 > 100 µM | SNB-19 > 100 µM | SK-MEL-2 > 100 µM | PC-3 > 100 µM | HOP-62 > 100 µM | OVCAR-3 > 100 µM | BT-549 > 100 µM | CCRF-CEM > 100 µM | UACC-62 > 100 µM | SF-295 > 100 µM | T47D > 100 µM | HOP-92 > 100 µM

O=c1c(C(c2ccc3ccccc3c2)c2c(O)oc3ccccc3c2=O)c(O)oc2ccccc12
inactive: DU-145 40.7 µM | OVCAR-4 26.7 µM | K562 50.6 µM | NCI-H522 17.5 µM | Malme-3M 17.7 µM | NCI/ADR-RES 17.9 µM | CAKI-1 22.9 µM | M14 25.9 µM | SNB-19 46.3 µM | SK-MEL-2 34.5 µM | PC-3 34.6 µM | HOP-62 39.3 µM | OVCAR-3 32.5 µM | BT-549 24.8 µM | CCRF-CEM 46.5 µM | UACC-62 38.1 µM | IGROV-1 30.8 µM | SF-295 50.4 µM | T47D 39.1 µM | HOP-92 29.2 µM

C=C1C(=O)C[C@H]2C(=C)C(=O)O[C@@H]2C2C1CC[C@@]2(C)O (stereo partly drawn)
inactive: DU-145 73.3 µM | OVCAR-4 > 10 µM | K562 16.3 µM | NCI-H522 12.7 µM | Malme-3M 16.3 µM | NCI/ADR-RES 26.2 µM | CAKI-1 16.7 µM | M14 16.1 µM | SNB-19 > 100 µM | SK-MEL-2 21.5 µM | PC-3 30.6 µM | HOP-62 31.3 µM | OVCAR-3 16.1 µM | BT-549 19.8 µM | CCRF-CEM > 100 µM | UACC-62 14.9 µM | IGROV-1 33.1 µM | SF-295 > 100 µM | T47D 28.2 µM | HOP-92 26.4 µM

COc1ccc2c(c1)c1c(n2CCN2CCCCC2)-c2ccccc2CC1
inactive: DU-145 32.1 µM | OVCAR-4 16.6 µM | K562 8.99 µM | NCI-H522 8.97 µM | Malme-3M 14.6 µM | NCI/ADR-RES 16.7 µM | CAKI-1 11.8 µM | M14 14.7 µM | SNB-19 16.6 µM | SK-MEL-2 15.2 µM | PC-3 13.6 µM | HOP-62 18.6 µM | OVCAR-3 18.3 µM | BT-549 23.1 µM | CCRF-CEM 14 µM | IGROV-1 11.6 µM | SF-295 14.8 µM | T47D 15.1 µM | HOP-92 15.8 µM

CCC1(CC)CC(=NNS(=O)(=O)c2ccc(C)cc2)C1
inactive: DU-145 > 100 µM | OVCAR-4 > 100 µM | K562 > 100 µM | NCI-H522 > 100 µM | Malme-3M > 100 µM | NCI/ADR-RES > 100 µM | CAKI-1 > 100 µM | M14 > 100 µM | SNB-19 > 100 µM | SK-MEL-2 > 100 µM | PC-3 > 100 µM | OVCAR-3 > 100 µM | BT-549 > 100 µM | CCRF-CEM > 100 µM | UACC-62 > 100 µM | IGROV-1 > 100 µM | SF-295 > 100 µM | T47D > 100 µM | HOP-92 > 100 µM

O=C(O)[C@@H]1NC[C@H]2C(Br)=NO[C@H]21
inactive: DU-145 > 100 µM | OVCAR-4 > 100 µM | NCI-H522 > 100 µM | Malme-3M > 100 µM | NCI/ADR-RES > 100 µM | CAKI-1 > 100 µM | M14 > 100 µM | SNB-19 > 100 µM | SK-MEL-2 > 100 µM | PC-3 > 100 µM | HOP-62 > 100 µM | OVCAR-3 > 100 µM | BT-549 > 100 µM | CCRF-CEM > 100 µM | UACC-62 > 100 µM | IGROV-1 > 100 µM | SF-295 > 100 µM | T47D > 100 µM | HOP-92 > 100 µM

Cn1nc(C(=O)N2CC(CCl)c3c2cc([N+](=O)[O-])c2ccccc32)cc1NC(=O)Nc1cc(C(=O)N2CC(CCl)c3c2cc([N+](=O)[O-])c2ccccc32)nn1C (stereo not drawn)
inactive: DU-145 > 100 µM | OVCAR-4 > 100 µM | K562 > 100 µM | NCI-H522 > 100 µM | Malme-3M > 100 µM | NCI/ADR-RES > 100 µM | CAKI-1 > 100 µM | M14 > 100 µM | SNB-19 77.4 µM | SK-MEL-2 > 100 µM | PC-3 > 100 µM | HOP-62 32.1 µM | OVCAR-3 > 100 µM | BT-549 > 100 µM | UACC-62 > 100 µM | SF-295 94.8 µM | T47D > 100 µM | HOP-92 > 100 µM
